Holding throughout (assay): Kinase profiling in a biochemical assay panel (mobility shift assays and ELISA), %-inhibition at 1 μM; selectivity entropy
Test [1] concerns the target panel of more than 300 wild-type and mutant kinases (313 kinase panel) (Homo sapiens, UniProt Q16512). The following applies: kinase PKN1; 1 μM.
In test [2] the target is panel of more than 300 wild-type and mutant kinases (313 kinase panel) (Homo sapiens, UniProt Q9UM73, L1196M).
Test [3] addresses panel of more than 300 wild-type and mutant kinases (313 kinase panel) (Homo sapiens, UniProt P24941). The following applies: 1 μM compound; for %-inhibition, CDK2/CycA2: kinase CDK2/CycA2; for %-inhibition, CDK2/CycE1: kinase CDK2/CycE1.
For test [4], the target named is panel of more than 300 wild-type and mutant kinases (313 kinase panel) (Homo sapiens, UniProt P10721, V560G). The following applies: kinase KIT(V560G); compound at 1 μM.
In test [5] the target is panel of more than 300 wild-type and mutant kinases (313 kinase panel) (Homo sapiens, UniProt Q9Y6M4). The following applies: kinase CK1γ3; 1 μM compound.
For test [6], the target named is panel of more than 300 wild-type and mutant kinases (313 kinase panel) (Homo sapiens, UniProt P12931). The following applies: kinase SRC; 1 μM.
In test [7] the target is panel of more than 300 wild-type and mutant kinases (313 kinase panel) (Homo sapiens, UniProt O96017). The following applies: kinase CHK2; 1 μM compound.
The target in test [8] is panel of more than 300 wild-type and mutant kinases (313 kinase panel) (Homo sapiens, UniProt P27448). The following applies: kinase MARK3; compound at 1 μM.
In test [9] the target is panel of more than 300 wild-type and mutant kinases (313 kinase panel) (Homo sapiens, UniProt Q15759).
The target of test [10] is T1, panel of more than 300 wild-type and mutant kinases (313 kinase panel) (Homo sapiens, UniProt O14733).
T1 sequence (O14733 1-419): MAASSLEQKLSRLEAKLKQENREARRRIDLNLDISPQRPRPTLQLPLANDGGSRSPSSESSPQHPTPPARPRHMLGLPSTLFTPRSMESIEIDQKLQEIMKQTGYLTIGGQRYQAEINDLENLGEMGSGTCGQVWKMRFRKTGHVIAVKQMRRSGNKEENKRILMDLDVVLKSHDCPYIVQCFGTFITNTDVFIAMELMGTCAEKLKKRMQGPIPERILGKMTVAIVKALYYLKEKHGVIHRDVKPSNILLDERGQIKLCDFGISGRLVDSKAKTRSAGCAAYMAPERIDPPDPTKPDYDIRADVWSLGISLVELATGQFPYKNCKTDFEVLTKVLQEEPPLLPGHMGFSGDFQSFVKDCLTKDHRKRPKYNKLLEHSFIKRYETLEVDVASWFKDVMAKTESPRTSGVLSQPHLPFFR

Test [11] has as its target panel of more than 300 wild-type and mutant kinases (313 kinase panel) (Homo sapiens, UniProt Q14289). The following applies: kinase PYK2; 1 μM.
In test [12] the target is panel of more than 300 wild-type and mutant kinases (313 kinase panel) (Homo sapiens, UniProt P36894). The following applies: kinase BMPR1A; 1 μM compound.
Test [13] deals with T2, panel of more than 300 wild-type and mutant kinases (313 kinase panel) (Homo sapiens, UniProt P42680).
T2 sequence (P42680 1-631): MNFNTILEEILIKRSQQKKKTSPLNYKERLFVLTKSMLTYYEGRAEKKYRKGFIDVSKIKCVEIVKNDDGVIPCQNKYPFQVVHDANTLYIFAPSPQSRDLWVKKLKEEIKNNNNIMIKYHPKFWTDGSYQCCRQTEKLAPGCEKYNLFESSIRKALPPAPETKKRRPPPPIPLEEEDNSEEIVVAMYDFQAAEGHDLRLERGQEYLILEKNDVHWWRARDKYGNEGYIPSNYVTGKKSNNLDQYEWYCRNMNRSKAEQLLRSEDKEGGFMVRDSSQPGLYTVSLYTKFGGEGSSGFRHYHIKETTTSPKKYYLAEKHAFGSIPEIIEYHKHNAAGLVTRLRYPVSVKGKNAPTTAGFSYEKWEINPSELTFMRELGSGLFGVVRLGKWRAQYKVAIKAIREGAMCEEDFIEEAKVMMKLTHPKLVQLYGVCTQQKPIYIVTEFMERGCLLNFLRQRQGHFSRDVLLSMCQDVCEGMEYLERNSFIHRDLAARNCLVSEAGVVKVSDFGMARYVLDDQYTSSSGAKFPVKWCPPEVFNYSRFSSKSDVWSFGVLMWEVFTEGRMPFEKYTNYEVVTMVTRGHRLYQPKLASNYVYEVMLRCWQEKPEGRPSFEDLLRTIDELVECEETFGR
The following applies: kinase TEC; 1 μM.

The target in test [14] is panel of more than 300 wild-type and mutant kinases (313 kinase panel) (Homo sapiens, UniProt Q9Y2H1). The following applies: kinase NDR2; 1 μM.
Test [15] addresses panel of more than 300 wild-type and mutant kinases (313 kinase panel) (Homo sapiens, UniProt Q96GD4). The following applies: kinase AurB; 1 μM compound.
The mark [16] stands for this setting: kinase ALK(L1196M), 1 μM compound.
Where [17] appears, read: kinase MAP2K7, compound at 1 μM.

The values that follow come from paper PMC3961306, “Comparison of the Cancer Gene Targeting and Biochemical Selectivities of All Targeted Kinase Inhibitors Approved for Clinical Use” (PLoS ONE, 2014).

The structures appear in SMILES notation.

Regarding `CO[C@H]1C[C@@H]2CC[C@@H](C)[C@@](O)(O2)C(=O)C(=O)N2CCCC[C@H]2C(=O)O[C@H]([C@H](C)C[C@@H]2CC[C@@H](OCCO)[C@H](OC)C2)CC(=O)[C@H](C)/C=C(\C)[C@@H](O)[C@@H](OC)C(=O)[C@H](C)C[C@H](C)/C=C/C=C/C=C/1C` [everolimus], the “%-inhibition of PKN1” value in test [1] is reported as 2.6%. Further, in [2] (setting [16]), the “%-inhibition, ALK(L1196M)” value is reported as -3.63%. Moreover, in [3], the “%-inhibition, CDK2/CycA2” value is listed as -11% and the “%-inhibition, CDK2/CycE1” value was -14%. For the same compound, the “%-inhibition of KIT(V560G)” value in test [4] was -6%. Also, the “%-inhibition, CK1γ3” value in [5] is given as -13%. Moreover, in [6], the “%-inhibition of SRC” value is given as 2.64%. Besides, the “%-inhibition, CHK2” value in [7] is reported as -37%. Further, the “%-inhibition of MARK3” value in test [8] is listed as -4%. In [9] (kinase p38β, 1 μM), the “%-inhibition of p38β” value is -4.49%. Moreover, the “%-inhibition of MAP2K7” value in test [10] (setting [17]) stood at 11%. Also, in test [11], the “%-inhibition of PYK2” value worked out at 1.49%. Moreover, in test [12], the “%-inhibition, BMPR1A” value is reported as -3.21%. The “%-inhibition of TEC” value in [13] is given as -4%. In addition, the “%-inhibition of NDR2” value in test [14] is listed as -8%. Moreover, in [15], the “%-inhibition, AurB” value is -1.39%.
For `CC(=O)Nc1cccc(-n2c(=O)n(C3CC3)c(=O)c3c(Nc4ccc(I)cc4F)n(C)c(=O)c(C)c32)c1` [trametinib], in test [1], the “%-inhibition of PKN1” value was found to be 3.71%. Besides, in test [2] (setting [16]), the “%-inhibition, ALK(L1196M)” value is -3.42%. In [3], the “%-inhibition, CDK2/CycA2” value came out at 24% and the “%-inhibition, CDK2/CycE1” value is reported as 2.59%. For the same compound, the “%-inhibition of KIT(V560G)” value in test [4] came out at 1%. Besides, the “%-inhibition of SRC” value in test [6] is -5.4%. In test [7], the “%-inhibition, CHK2” value is listed as -5%. In addition, the “%-inhibition of MARK3” value in test [8] is recorded as -3.21%. The “%-inhibition of p38β” value in test [9] (kinase p38β, 1 μM) stood at 2.31%. The “%-inhibition of MAP2K7” value in test [10] (setting [17]) is -2.32%. For the same compound, in [11], the “%-inhibition of PYK2” value was determined as 2.72%. For the same compound, the “%-inhibition, BMPR1A” value in [12] is listed as 2.14%. The “%-inhibition of TEC” value in test [13] was -7.53%. In addition, the “%-inhibition of NDR2” value in test [14] is reported as -1.48%. Also, in [15], the “%-inhibition, AurB” value is -4%.
Take `O=S(=O)(c1cccc2cnccc12)N1CCCNCC1` [fasudil]: the “%-inhibition of PKN1” value in test [1] was determined as 55%. Besides, the “%-inhibition, ALK(L1196M)” value in test [2] (setting [16]) is listed as -4%. Besides, in test [3], the “%-inhibition, CDK2/CycA2” value amounted to 22% and the “%-inhibition, CDK2/CycE1” value came out at 13%. In [4], the “%-inhibition of KIT(V560G)” value came out at 0.322%. Further, the “%-inhibition, CK1γ3” value in test [5] was -4%. In addition, the “%-inhibition of SRC” value in [6] is reported as -5%. The “%-inhibition, CHK2” value in [7] worked out at 4%. For the same compound, the “%-inhibition of MARK3” value in [8] was 13%. In addition, in test [9] (kinase p38β, 1 μM), the “%-inhibition of p38β” value is -2.17%. Moreover, the “%-inhibition of MAP2K7” value in test [10] (setting [17]) is -3.26%. Moreover, the “%-inhibition of PYK2” value in test [11] amounted to 1.79%. Moreover, the “%-inhibition, BMPR1A” value in test [12] is listed as -10%. Also, the “%-inhibition of TEC” value in [13] is given as -7%. Moreover, in [14], the “%-inhibition of NDR2” value turned out to be 25%. The “%-inhibition, AurB” value in test [15] is recorded as 1%.
For the compound `N#CC[C@H](C1CCCC1)n1cc(-c2ncnc3[nH]ccc23)cn1` [ruxolitinib], in test [1], the “%-inhibition of PKN1” value turned out to be 50%. Besides, the “%-inhibition, ALK(L1196M)” value in [2] (1 µM) is listed as 79%. In addition, in test [3], the “%-inhibition, CDK2/CycA2” value worked out at 2.48% and the “%-inhibition, CDK2/CycE1” value was -12%. Besides, the “%-inhibition of KIT(V560G)” value in test [4] is reported as -7%. In test [5], the “%-inhibition, CK1γ3” value amounted to 4.6%. Besides, in [6], the “%-inhibition of SRC” value came out at 16%. The “%-inhibition, CHK2” value in test [7] came out at 3.64%. Also, the “%-inhibition of p38β” value in test [9] (1 µM) is recorded as -0.778%. The “%-inhibition of MAP2K7” value in test [10] (1 µM) came to 4%. For the same compound, in [11], the “%-inhibition of PYK2” value turned out to be 68%. Also, the “%-inhibition, BMPR1A” value in [12] was 5.7%. Further, in test [13], the “%-inhibition of TEC” value is listed as 18%. For the same compound, the “%-inhibition of NDR2” value in test [14] is 89%. Also, the “%-inhibition, AurB” value in test [15] worked out at 24%.
On to `COc1cc2nccc(Oc3ccc(NC(=O)C4(C(=O)Nc5ccc(F)cc5)CC4)cc3)c2cc1OC` [cabozantinib], for which the “%-inhibition of PKN1” value in test [1] was determined as 2.13%. In addition, in test [2] (setting [16]), the “%-inhibition, ALK(L1196M)” value amounted to 4.25%. Also, in [3], the “%-inhibition, CDK2/CycA2” value is -9% and the “%-inhibition, CDK2/CycE1” value is on record as 5%. In addition, the “%-inhibition of KIT(V560G)” value in test [4] is given as 96%. In addition, the “%-inhibition, CK1γ3” value in test [5] was determined as 5%. Also, in [6], the “%-inhibition of SRC” value worked out at 92%. In test [7], the “%-inhibition, CHK2” value is listed as 65%. Also, in test [8], the “%-inhibition of MARK3” value is recorded as -3%. The “%-inhibition of p38β” value in test [9] (kinase p38β, 1 μM) is listed as 33%. The “%-inhibition of MAP2K7” value in [10] (setting [17]) was 10%. Further, the “%-inhibition of PYK2” value in test [11] was 91%. In addition, in test [12], the “%-inhibition, BMPR1A” value turned out to be 2.27%. Moreover, the “%-inhibition of TEC” value in [13] is listed as 43%. Further, the “%-inhibition of NDR2” value in [14] was -6%. For the same compound, in test [15], the “%-inhibition, AurB” value came out at 89%.
For `CCCS(=O)(=O)Nc1ccc(F)c(C(=O)c2c[nH]c3ncc(-c4ccc(Cl)cc4)cc23)c1F` [vemurafenib], in [1], the “%-inhibition of PKN1” value is reported as -0.378%. The “%-inhibition, ALK(L1196M)” value in test [2] (setting [16]) worked out at 3%. Further, in [3], the “%-inhibition, CDK2/CycA2” value is -3% and the “%-inhibition, CDK2/CycE1” value is given as -5%. Further, in [4], the “%-inhibition of KIT(V560G)” value turned out to be 32%. Moreover, in test [5], the “%-inhibition, CK1γ3” value worked out at 2.14%. Further, the “%-inhibition of SRC” value in [6] is given as 52%. In addition, in test [7], the “%-inhibition, CHK2” value stood at 6.32%. For the same compound, the “%-inhibition of MARK3” value in test [8] is -0.226%. Besides, in test [9] (kinase p38β, 1 μM), the “%-inhibition of p38β” value is 24%. The “%-inhibition of MAP2K7” value in test [10] (setting [17]) was determined as 1.65%. Also, in test [11], the “%-inhibition of PYK2” value is given as 0.921%. The “%-inhibition, BMPR1A” value in [12] came to 9%. Further, in test [13], the “%-inhibition of TEC” value was -0.191%. Besides, in [14], the “%-inhibition of NDR2” value is -2.51%. Further, the “%-inhibition, AurB” value in test [15] is given as 6%.
